This test has as its target T1, human mGlu5a receptor (Homo sapiens, UniProt P41594).
T1 construct: expressed in transfected cells
Put plainly: Intracellular Ca2+ mobilization assay (mGlu5 PAM). The class given is cell-based. As to conditions: for Emax: HEK293, maximal response in % of the maximal stimulatory effect obtained with saturating concentrations of L-glutamate, read-out: Eff. (%); for EC50: HEK-293 cells stably transfected with human mGlu5a receptor, L-glutamate added at EC20 (typically around 80 μM) after 10-30 min pre-incubation with test compound, read-out: EC50 (nM) mGlu5PAM. As to the method:
A monoclonal HEK-293 cell line stably transfected with a cDNA encoding for the human mGlu5a receptor was generated; for the work with mGlu5 Positive Allosteric Modulators (PAMs), a cell line with low receptor expression levels and low constitutive receptor activity was selected to allow the differentiation of agonistic versus PAM activity. Cells were cultured according to standard protocols (Freshney, 2000) in Dulbecco's Modified Eagle Medium with high glucose supplemented with 1 mM glutamine, 10% (vol/vol) heat-inactivated bovine calf serum, Penicillin/Streptomycin, 50 μg/ml hygromycin and 15 μg/ml blasticidin (all cell culture reagents and antibiotics from Invitrogen, Basel, Switzerland).
About 24 hrs before an experiment, 5×10^4 cells/well were seeded in poly-D-lysine coated, black/clear-bottomed 96-well plates. The cells were loaded with 2.5 μM Fluo-4AM in loading buffer (1×HBSS, 20 mM HEPES) for 1 hr at 37° C. and washed five times with loading buffer. The cells were transferred into a Functional Drug Screening System 7000 (Hamamatsu, Paris, France), and 11 half logarithmic serial dilutions of test compound at 37° C. were added and the cells were incubated for 10-30 min with on-line recording of fluorescence. Following this pre-incubation step, the agonist L-glutamate was added to the cells at a concentration corresponding to EC20 (typically around 80 μM) with on-line recording of fluorescence; in order to account for day-to-day variations in the responsiveness of cells, the EC20 of glutamate was determined immediately ahead of each experiment by recording of a full dose-response curve of glutamate.
Responses were measured as peak increase in fluorescence minus basal (i.e. fluorescence without addition of L-glutamate), normalized to the maximal stimulatory effect obtained with saturating concentrations of L-glutamate. Graphs were plotted with the % maximal stimulatory using XLfit, a curve fitting program that iteratively plots the data using Levenburg Marquardt algorithm. The single site competition analysis equation used was y=A+((B−A)/(1+((x/C)D))), where y is the % maximal stimulatory effect, A is the minimum y, B is the maximum y, C is the EC50, x is the log 10 of the concentration of the competing compound and D is the slope of the curve (the Hill Coefficient). From these curves the EC50 (concentration at which half maximal stimulation was achieved), the Hill coefficient as well as the maximal response in % of the maximal stimulatory effect obtained with saturating concentrations of L-glutamate were calculated.
A depression of the signal observed after addition of the EC20 concentration of L-glutamate was indicative of an inhibitory activity of the test compound.

Here are results for 23 compounds from US8772300B2, “Phenyl or pyridinyl-ethynyl derivatives” (Hoffmann-La Roche Inc., priority 2011, dated 2014).

T1 sequence (P41594 21-1180 isoform P41594-2 limits assumed): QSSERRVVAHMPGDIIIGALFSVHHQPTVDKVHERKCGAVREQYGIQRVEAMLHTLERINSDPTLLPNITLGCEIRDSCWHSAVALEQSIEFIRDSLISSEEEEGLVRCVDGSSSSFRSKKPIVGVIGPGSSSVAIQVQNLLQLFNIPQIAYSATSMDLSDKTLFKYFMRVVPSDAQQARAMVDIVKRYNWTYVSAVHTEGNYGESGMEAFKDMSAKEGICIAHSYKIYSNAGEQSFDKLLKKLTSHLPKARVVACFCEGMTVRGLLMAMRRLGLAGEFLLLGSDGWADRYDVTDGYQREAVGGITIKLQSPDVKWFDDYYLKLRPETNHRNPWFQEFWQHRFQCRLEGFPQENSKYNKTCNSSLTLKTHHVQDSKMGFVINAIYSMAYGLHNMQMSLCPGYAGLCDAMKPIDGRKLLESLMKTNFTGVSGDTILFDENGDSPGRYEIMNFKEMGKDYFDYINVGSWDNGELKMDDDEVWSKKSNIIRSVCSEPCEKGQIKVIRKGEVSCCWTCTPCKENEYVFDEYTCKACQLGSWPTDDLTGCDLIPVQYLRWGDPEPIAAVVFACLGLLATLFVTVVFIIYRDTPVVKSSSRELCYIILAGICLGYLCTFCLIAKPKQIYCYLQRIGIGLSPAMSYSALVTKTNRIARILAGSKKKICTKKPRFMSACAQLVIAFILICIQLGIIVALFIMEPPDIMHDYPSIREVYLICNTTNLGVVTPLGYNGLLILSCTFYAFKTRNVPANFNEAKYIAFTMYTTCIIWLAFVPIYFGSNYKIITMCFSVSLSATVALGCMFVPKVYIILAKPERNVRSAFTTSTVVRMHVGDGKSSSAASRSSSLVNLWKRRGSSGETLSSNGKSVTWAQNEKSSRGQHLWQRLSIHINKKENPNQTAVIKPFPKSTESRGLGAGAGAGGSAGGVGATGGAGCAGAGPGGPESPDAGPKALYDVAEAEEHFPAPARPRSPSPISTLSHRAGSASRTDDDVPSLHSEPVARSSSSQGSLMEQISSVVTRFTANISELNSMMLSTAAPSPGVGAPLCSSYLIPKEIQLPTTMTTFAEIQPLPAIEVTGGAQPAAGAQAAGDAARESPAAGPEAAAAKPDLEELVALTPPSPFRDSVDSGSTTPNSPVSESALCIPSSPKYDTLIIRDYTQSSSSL

As to `CC1(C)CC(O)CCN1C(=O)c1ccc(C#Cc2ccccc2)cn1` (racemic) [Example 38, (RS)-(4-Hydroxy-2,2-dimethyl-piperidin-1-yl)-(5-phenylethynyl-pyridin-2-yl)-methanone], the EC50 (in general, the concentration that produces a half-maximal response) was found to be 28 nM. The Emax (HEK-293 human mGlu5a cells) is 57%.
For `CC1(C)CN(C(=O)c2ccc(C#Cc3ccccc3)cn2)CCC1O` (racemic) [Example 39, (RS)-(4-Hydroxy-3,3-dimethyl-piperidin-1-yl)-(5-phenylethynyl-pyridin-2-yl)-methanone] the same measures were 35 nM and 58%.
Taken in the same sequence, the figures for `CC1(C)CN(C(=O)c2ccc(C#Cc3ccc(F)cc3)cn2)CCC1O` (racemic) [Example 40, (RS)-[5-(4-Fluoro-phenylethynyl)-pyridin-2-yl]-(4-hydroxy-3,3-dimethyl-piperidin-1-yl)-methanone] were 93 nM and 37%.
For the compound `CC1(C)CN(C(=O)c2ccc(C#Cc3cccc(F)c3)cn2)CCC1O` (racemic) [Example 41, (RS)-[5-(3-Fluoro-phenylethynyl)-pyridin-2-yl]-(4-hydroxy-3,3-dimethyl-piperidin-1-yl)-methanone], the EC50 stood at 72 nM. Further, the Emax (HEK-293 human mGlu5a cells) stood at 45%.
Turning to `CC1(C)CC(O)CCN1C(=O)c1ncc(C#Cc2ccccc2)cn1` (racemic) [Example 47, (RS)-(4-Hydroxy-2,2-dimethyl-piperidin-1-yl)-(5-phenylethynyl-pyrimidin-2-yl)-methanone], the EC50 worked out at 66 nM. Also, for the setting “HEK-293 human mGlu5a cells”, the Emax worked out at 57%.
For `CC1(C)CN(C(=O)c2ncc(C#Cc3ccccc3)cn2)CCC1O` (racemic) [Example 48, (RS)-(4-Hydroxy-3,3-dimethyl-piperidin-1-yl)-(5-phenylethynyl-pyrimidin-2-yl)-methanone] the same measures were 49 nM and 55%.
Taken in the same sequence, the figures for `CC1(C)CN(C(=O)c2ncc(C#Cc3cccc(F)c3)cn2)CCC1O` (racemic) [Example 49, (RS)-[5-(3-Fluoro-phenylethynyl)-pyrimidin-2-yl]-(4-hydroxy-3,3-dimethyl-piperidin-1-yl)-methanone] were 98 nM and 48%.
For `CC(N(C)C(=O)c1ncc(C#Cc2ccccc2)cc1F)C(F)(F)F` (racemic) [Example 51, (RS)-3-Fluoro-5-phenylethynyl-pyridine-2-carboxylic Acid methyl-(2,2,2-trifluoro-1-methyl-ethyl)-amide] the same measures were 66 nM and 69%.
Take `CC(NC(=O)c1ccc(C#Cc2ccnc(Cl)c2)cn1)C(F)(F)F` (racemic) [Example 57, (RS)-5-(2-Chloro-pyridin-4-ylethynyl)-pyridine-2-carboxylic Acid (2,2,2-trifluoro-1-methyl-ethyl)-amide]: the EC50 is 22 nM. Moreover, the Emax (HEK-293 human mGlu5a cells) amounted to 42%.
`CC(NC(=O)c1ccc(C#Cc2cccc(Cl)c2)cn1)C(F)(F)F` (racemic) [Example 61, (RS)-5-(3-Chloro-phenylethynyl)-pyridine-2-carboxylic Acid (2,2,2-trifluoro-1-methyl-ethyl)-amide]: the EC50 is 61 nM. Where the note is “HEK-293 human mGlu5a cells”, the Emax was determined as 83%.
For `CC(N(C)C(=O)c1ccc(C#Cc2cccc(Cl)c2)cn1)C(F)(F)F` (racemic) [Example 62, (RS)-5-(3-Chloro-phenylethynyl)-pyridine-2-carboxylic acid methyl-(2,2,2-trifluoro-1-methyl-ethyl)-amide] the same measures were 25 nM and 35%.
As to `CC1(C)CC(O)CCN1C(=O)c1ccc(C#Cc2cccc(F)c2)cn1` (racemic) [Example 63, (RS)-[5-(3-Fluoro-phenylethynyl)-pyridin-2-yl]-(4-hydroxy-2,2-dimethyl-piperidin-1-yl)-methanone], the EC50 was found to be 40 nM. Besides, the Emax (HEK-293 human mGlu5a cells) worked out at 45%.
Taken in the same sequence, the figures for `CC1(C)CC(O)CCN1C(=O)c1ccc(C#Cc2cc(F)ccc2F)cn1` (racemic) [Example 64, (RS)-[5-(2,5-Difluoro-phenylethynyl)-pyridin-2-yl]-(4-hydroxy-2,2-dimethyl-piperidin-1-yl)-methanone] were 34 nM and 42%.
For `CC1(C)CC(O)CCN1C(=O)c1ncc(C#Cc2cccc(F)c2)cn1` (racemic) [Example 65, (RS)-[5-(3-Fluoro-phenylethynyl)-pyrimidin-2-yl]-(4-hydroxy-2,2-dimethyl-piperidin-1-yl)-methanone] the same measures were 149 nM and 55%.
Consider `CC1(C)CC(O)CCN1C(=O)c1ncc(C#Cc2cc(F)ccc2F)cn1` (racemic) [Example 66, (RS)-[5-(2,5-Difluoro-phenylethynyl)-pyrimidin-2-yl]-(4-hydroxy-2,2-dimethyl-piperidin-1-yl)-methanone], for which the EC50 worked out at 101 nM. Further, the Emax (HEK-293 human mGlu5a cells) was 49%.
Take `CC1(C)CC(O)CCN1C(=O)c1ncc(C#Cc2cccc(F)c2)cc1F` (racemic) [Example 67, (RS)-[3-Fluoro-5-(3-fluoro-phenylethynyl)-pyridin-2-yl]-(4-hydroxy-2,2-dimethyl-piperidin-1-yl)-methanone]: the EC50 is 54 nM. For the same compound, the Emax (HEK-293 human mGlu5a cells) is 57%.
Taken in the same sequence, the figures for `CC1(C)CC(O)CCN1C(=O)c1ncc(C#Cc2cc(F)ccc2F)cc1F` (racemic) [Example 68, (RS)-[5-(2,5-Difluoro-phenylethynyl)-3-fluoro-pyridin-2-yl]-(4-hydroxy-2,2-dimethyl-piperidin-1-yl)-methanone] were 46 nM and 54%.
For `CC(NC(=O)c1ccc(C#Cc2ccnc(Cl)c2)cn1)C(F)(F)F` (single isomer, unassigned) [Example 59, (R) or (S)-5-(2-Chloro-pyridin-4-ylethynyl)-pyridine-2-carboxylic Acid (2,2,2-trifluoro-1-methyl-ethyl)-amide] the same measures were 27 nM and 47%.
In the case of `CC(NC(=O)c1ccc(C#Cc2ccnc(Cl)c2)cn1)C(F)(F)F` (single isomer, unassigned) [Example 60, (S) or (R)-5-(2-Chloro-pyridin-4-ylethynyl)-pyridine-2-carboxylic Acid (2,2,2-trifluoro-1-methyl-ethyl)-amide], the EC50 came to 69 nM. Moreover, the “Eff. (%)” value (maximal response in % of the maximal stimulatory effect obtained with saturating concentrations of L-glutamate, HEK-293 human mGlu5a cells) is 60%.
With `CC(C)(C)NC(=O)c1ccc(C#Cc2ccccc2)cn1` [Example 1, 5-Phenylethynyl-pyridine-2-carboxylic Acid tert-butylamide], the EC50 was found to be 49 nM. For the same compound, where the note is “HEK-293 human mGlu5a cells”, the Emax is 115%.
Take `CN(C(=O)c1ccc(C#Cc2ccccc2)cn1)C(C)(C)C` [Example 2, 5-Phenylethynyl-pyridine-2-carboxylic Acid tert-butyl-methyl-amide]: the EC50 stood at 19 nM. The Emax (HEK-293 human mGlu5a cells) was found to be 87%.
For `CN(C(=O)c1ccc(C#Cc2cccc(F)c2)cn1)C(C)(C)C` [Example 3, 5-(3-Fluoro-phenylethynyl)-pyridine-2-carboxylic Acid tert-butyl-methyl-amide] the same measures were 16 nM and 64%.
Taken in the same sequence, the figures for `CN(C(=O)c1ccc(C#Cc2ccc(F)cc2)cn1)C(C)(C)C` [Example 4, 5-(4-Fluoro-phenylethynyl)-pyridine-2-carboxylic Acid tert-butyl-methyl-amide] were 18 nM and 83%.
